The text below walks through data of article PMC9846560, “Silver-promoted solid-phase guanidinylation enables the first synthesis of arginine glycosylated Samoamide A cyclopeptide analogue” (Frontiers in Chemistry, 2023).

Converted amounts (≈) assume the structure as drawn. Where a SMILES comes first, the peptide text is derived from it.

One series is described as follows: Solubility test (water solubility, saturated solution). In kind it is physicochemical. The conditions noted are these: water (saturated aqueous solution), from solid: saturated aqueous solution at 25°C, sonicated approx. 10 min, centrifuged, supernatant diluted, UV absorbance at 214 nm against Samoamide A standard curve (C = 0.4646A - 0.0201). Here is the method: Samoamide A was precisely weighed, and 1 mg was placed in a 10 ml centrifuge tube and diluted to scale with 95% ethanol. Then, 0, 200, 400, 600, 800, 1,000 μl aliquots were pipetted in a 5 ml centrifuge tube and adjusted to 1 ml with 95% ethanol, and the aqueous solutions were measured on a scale, sonicated for 5 min, and placed at room temperature. An additional 1 ml of 95% ethanol was added, and water was added to the same method as the blank. The absorbance values were measured at 214 nm to obtain the linear regression equation of the standard curve.
Sufficient amounts of Samoamide A and its glycosylated derivatives were dissolved in aqueous solutions at a constant temperature of 25°C, sonicated for approximately 10 min, centrifuged and allowed to settle to remove the insoluble matter from the solution, and the upper layer of supernatant was taken, that is, the saturated solution. After the saturated solution was properly diluted, its absorbance value was measured at 214 nm, and the concentration of the saturated solution was calculated by substituting the above equation ([Chevalier et al., 2001]).
In general, thermodynamic solubility refers to solubility found after equilibrating the solid with the medium. Regarding `CC[C@H](C)[C@@H]1NC(=O)[C@@H]2CCCN2C(=O)[C@H](Cc2ccccc2)NC(=O)[C@H](C(C)C)NC(=O)[C@H](CC(C)C)NC(=O)[C@@H]2CCCN2C(=O)[C@@H]2CCCN2C(=O)[C@H](Cc2ccccc2)NC1=O` [Samoamide A] (cyclo(LVFPIFPP)), the solubility (thermodynamic) came to 730 µg/mL (≈ 801 µM).

The nature of another series: head-to-tail lactamisation of linear octapeptide (N-terminal Leu or Arg onto C-terminal Val or Arg), PyBOP (3 eq)/HOBt (3 eq)/DIPEA (6 eq), 0 °C to rt, 14 h. The conditions noted are these: the molecule shown is the open-chain precursor; 24-membered ring; DCM; 12.0 h.
In the case of `CC[C@H](C)[C@H](NC(=O)[C@H](Cc1ccccc1)NC(=O)[C@@H]1CCCN1C(=O)[C@H](CCCNC(=N)N[C@@H]1O[C@H](COC(C)=O)[C@@H](OC(C)=O)[C@H](OC(C)=O)[C@H]1NC(C)=O)NC(=O)[C@@H](N)CC(C)C)C(=O)N1CCC[C@H]1C(=O)N[C@@H](Cc1ccccc1)C(=O)N[C@H](C(=O)O)C(C)C` [H-Leu-Arg(N-GlcNAc(OAc)3)-Pro-Phe-Ile-Pro-Phe-Val-OH], the ring closure, overall yield came to 20%.

Staying with this series, now noted: the molecule shown is the open-chain precursor; 24-membered ring; DCM; 14.0 h.
As for `CC[C@H](C)[C@H](NC(=O)[C@H](Cc1ccccc1)NC(=O)[C@@H]1CCCN1C(=O)[C@@H]1CCCN1C(=O)[C@@H](N)CCCNC(=N)NS(=O)(=O)c1c(C)c(C)c2c(c1C)CC(C)(C)O2)C(=O)N1CCC[C@H]1C(=O)N[C@@H](Cc1ccccc1)C(=O)N[C@H](C(=O)O)C(C)C` [H-Arg(Pbf)-Pro-Pro-Phe-Ile-Pro-Phe-Val-OH], the ring closure, overall yield is 9%.
On the same count and under the same terms, to `CC[C@H](C)[C@H](NC(=O)[C@H](Cc1ccccc1)NC(=O)[C@@H]1CCCN1C(=O)[C@H](CCCNC(=N)NS(=O)(=O)c1c(C)c(C)c2c(c1C)CC(C)(C)O2)NC(=O)[C@@H](N)CC(C)C)C(=O)N1CCC[C@H]1C(=O)N[C@@H](Cc1ccccc1)C(=O)N[C@H](C(=O)O)C(C)C` [H-Leu-Arg(Pbf)-Pro-Phe-Ile-Pro-Phe-Val-OH] belongs 10%; to `CC[C@H](C)[C@H](NC(=O)[C@H](Cc1ccccc1)NC(=O)[C@H](CCCNC(=N)NS(=O)(=O)c1c(C)c(C)c2c(c1C)CC(C)(C)O2)NC(=O)[C@@H]1CCCN1C(=O)[C@@H](N)CC(C)C)C(=O)N1CCC[C@H]1C(=O)N[C@@H](Cc1ccccc1)C(=O)N[C@H](C(=O)O)C(C)C` [H-Leu-Pro-Arg(Pbf)-Phe-Ile-Pro-Phe-Val-OH], 10%.
In turn, `CC[C@H](C)[C@H](NC(=O)[C@H](CCCNC(=N)NS(=O)(=O)c1c(C)c(C)c2c(c1C)CC(C)(C)O2)NC(=O)[C@@H]1CCCN1C(=O)[C@@H]1CCCN1C(=O)[C@@H](N)CC(C)C)C(=O)N1CCC[C@H]1C(=O)N[C@@H](Cc1ccccc1)C(=O)N[C@H](C(=O)O)C(C)C` [H-Leu-Pro-Pro-Arg(Pbf)-Ile-Pro-Phe-Val-OH] gave a ring closure, overall yield of 8%.
The molecule `Cc1c(C)c(S(=O)(=O)NC(=N)NCCC[C@H](NC(=O)[C@H](Cc2ccccc2)NC(=O)[C@@H]2CCCN2C(=O)[C@@H]2CCCN2C(=O)[C@@H](N)CC(C)C)C(=O)N2CCC[C@H]2C(=O)N[C@@H](Cc2ccccc2)C(=O)N[C@H](C(=O)O)C(C)C)c(C)c2c1OC(C)(C)C2` [H-Leu-Pro-Pro-Phe-Arg(Pbf)-Pro-Phe-Val-OH] showed a ring closure, overall yield of 6%.
On the same count and under the same terms, to `CC[C@H](C)[C@H](NC(=O)[C@H](Cc1ccccc1)NC(=O)[C@@H]1CCCN1C(=O)[C@@H]1CCCN1C(=O)[C@@H](N)CC(C)C)C(=O)N[C@@H](CCCNC(=N)NS(=O)(=O)c1c(C)c(C)c2c(c1C)CC(C)(C)O2)C(=O)N[C@@H](Cc1ccccc1)C(=O)N[C@H](C(=O)O)C(C)C` [H-Leu-Pro-Pro-Phe-Ile-Arg(Pbf)-Phe-Val-OH] belongs 5%; to `CC[C@H](C)[C@H](NC(=O)[C@H](Cc1ccccc1)NC(=O)[C@@H]1CCCN1C(=O)[C@@H]1CCCN1C(=O)[C@@H](N)CC(C)C)C(=O)N1CCC[C@H]1C(=O)N[C@@H](CCCNC(=N)NS(=O)(=O)c1c(C)c(C)c2c(c1C)CC(C)(C)O2)C(=O)N[C@H](C(=O)O)C(C)C` [H-Leu-Pro-Pro-Phe-Ile-Pro-Arg(Pbf)-Val-OH], 4%; to `CC[C@H](C)[C@H](NC(=O)[C@H](Cc1ccccc1)NC(=O)[C@@H]1CCCN1C(=O)[C@@H]1CCCN1C(=O)[C@@H](N)CC(C)C)C(=O)N1CCC[C@H]1C(=O)N[C@@H](Cc1ccccc1)C(=O)N[C@@H](CCCNC(=N)NS(=O)(=O)c1c(C)c(C)c2c(c1C)CC(C)(C)O2)C(=O)O` [H-Leu-Pro-Pro-Phe-Ile-Pro-Phe-Arg(Pbf)-OH], 6%.
Consider `CC[C@H](C)[C@H](NC(=O)[C@H](Cc1ccccc1)NC(=O)[C@@H]1CCCN1C(=O)[C@@H]1CCCN1C(=O)[C@@H](N)CC(C)C)C(=O)N1CCC[C@H]1C(=O)N[C@@H](Cc1ccccc1)C(=O)N[C@H](C(=O)O)C(C)C` [H-Leu-Pro-Pro-Phe-Ile-Pro-Phe-Val-OH], for which the ring closure, overall yield turned out to be 15%.
